Results reported in PMC12693167, “Design, Synthesis and Anticancer Activity of 6-Substituted-1-(3,4,5-trimethoxyphenyl)-1H-indole Against Tubulin Polymerisation” (Molecules, 2025).

Assays:
[1] = system: HeLa cells; assay: CCK-8 antiproliferative assay, HeLa; format: cell-based; conditions: Homo sapiens, cell viability (CCK-8), 48 h
Procedure: To evaluate the anticancer potential of the synthesized compounds, a panel of six human and murine cancer cell lines representing different tissue origins was selected, including MCF-7 (human breast adenocarcinoma), MDA-MB-231 (human triple-negative breast cancer), A549 (human non-small cell lung cancer), HeLa (human cervical cancer), A375 (human melanoma), and B16-F10 (murine melanoma) (Table 2). […] DMSO was used as the vehicle control, and all experiments were performed in triplicate to ensure reproducibility.
Human breast cancer cells (MCF-7), human lung cancer cells (A549), human cervical cancer cells (HeLa), human triple-negative breast cancer cells (MDA-MB-231), and human malignant melanoma cells (A375) were cultured in DMEM. Mouse melanoma cells (B16F10) were maintained in RPMI-1640 medium. All media were supplemented with 10% fetal bovine serum and 1% penicillin-streptomycin (Life Technologies, Carlsbad, CA, USA) and maintained at 37 °C in a humidified atmosphere with 5% CO2.
The cytotoxicity of the test compounds was evaluated against MCF-7, A549, HeLa, MDA-MB-231, A375, and B16F10 using the CCK-8 assay. Cells were seeded into 96-well plates at a density of 5000 cells/well. After removing the medium, 100 μL of medium with 0.1% DMSO containing test compounds at different concentrations was added to each well and incubated at 37 °C for another 48 h. The CCK-8 solution was added and incubated for another 1 h, and then, the absorbance was detected with a microplate reader at a wavelength of 450 nm. The IC50 values were calculated by nonlinear regression analysis using GraphPad Prism 8.0.2. All the experiments were repeated at least three times.

[2] = system: MCF-7 cells; assay: Wound healing assay; format: cell-based, human; conditions: 0.1, 1, 10 μM, 24 h, vs untreated control
Procedure: The impact of compound 3g on MCF-7 cell migration was assessed using wound healing and transwell migration assays.
MCF-7 cells were seeded and incubated in a 6-well plate overnight. Scratches were made in confluent monolayers with a 200 μL pipette tip. Then, wounds were washed twice with media to remove debris and uprooted cells. Cells were treated with various concentrations (0, 0.1, 1, and 10 μM) of compound 3g. Images were obtained using phase contrast microscopy at 0 and 24 h. The migration distance of cells in the wound area was quantified using ImageJ.
Figure 4 Effect of compound 3g on the migration of MCF-7 breast cancer cells. (A) 3g inhibited the migration of MCF-7 cells at different concentrations in a dose-dependent manner. Representative images of wound healing were captured by an inverted microscope at 0 h and 24 h treatment. Scale bar = 200 μm. (B) Wound closure percentages in the different groups after treatment with 3g for 24 h. (C) Results of the transwell migration assay. Representative images of the stained migrated cells after incubation with 3g at different concentrations for 48 h. Scale bar = 200 μm. Data are presented as the mean ± SD of three independent experiments. Bar values represent the standard deviation SD. ** p < 0.01, and *** p < 0.001 (one-way ANOVA).

[3] = biological target: T1, purified porcine brain tubulin (Sus scrofa, UniProt P02554); assay: Biolayer interferometry (BLI) binding to tubulin; conditions: immobilized tubulin, 1:1 binding model, mean ± SD, triplicate
T1 construct: purified porcine brain tubulin; from tissue; host or cells: porcine brain
Procedure: To detect the direct interaction between the synthesized compounds and tubulin, biolayer interferometry (BLI) experiments were performed using purified porcine brain tubulin immobilized on Super Streptavidin (SSA) biosensor [30]. […] Association and dissociation kinetics were monitored in real time, and equilibrium dissociation constants (KD) were determined by global fitting of the sensorgrams to a 1:1 binding model. All measurements were conducted in triplicate, and results are reported as mean ± SD.
BLI assays were performed on an Octet RED96 instrument (FortéBio, Pall Life Sciences, Menlo Park, CA, USA) at 25 °C in PBS buffer supplemented with 0.02% (v/v) Tween-20 as the running buffer. Biotinylated tubulin proteins (3 μg/mL) were immobilized onto Super Streptavidin (SSA) biosensors. Association and dissociation were monitored for 60 s each. […] Reference subtraction was performed using sensors incubated in running buffer without protein loading to correct for baseline drift. Data were analyzed using Octet Data Analysis software (version 9.0), and equilibrium dissociation constants (KD) were determined by fitting the curves to a 1:1 binding model. All measurements were performed in triplicate, and results are reported as mean ± SD.
BLI assays were performed on an Octet RED96 instrument (FortéBio, Pall Life Sciences) at 25 °C in PBS buffer supplemented with 0.02% (v/v) Tween-20 as the running buffer. Biotinylated tubulin proteins (3 μg/mL) were immobilized onto Super Streptavidin (SSA) biosensors. Association and dissociation were monitored for 60 s […]
Reference subtraction was performed using sensors incubated in running buffer without protein loading to correct for baseline drift. Data were analyzed using Octet Data Analysis software (version 9.0), and equilibrium dissociation constants (KD) were determined by fitting the curves to a 1:1 binding model. All measurements were performed in triplicate, and results are reported as mean ± SD.

T1 sequence (P02554 whole entry): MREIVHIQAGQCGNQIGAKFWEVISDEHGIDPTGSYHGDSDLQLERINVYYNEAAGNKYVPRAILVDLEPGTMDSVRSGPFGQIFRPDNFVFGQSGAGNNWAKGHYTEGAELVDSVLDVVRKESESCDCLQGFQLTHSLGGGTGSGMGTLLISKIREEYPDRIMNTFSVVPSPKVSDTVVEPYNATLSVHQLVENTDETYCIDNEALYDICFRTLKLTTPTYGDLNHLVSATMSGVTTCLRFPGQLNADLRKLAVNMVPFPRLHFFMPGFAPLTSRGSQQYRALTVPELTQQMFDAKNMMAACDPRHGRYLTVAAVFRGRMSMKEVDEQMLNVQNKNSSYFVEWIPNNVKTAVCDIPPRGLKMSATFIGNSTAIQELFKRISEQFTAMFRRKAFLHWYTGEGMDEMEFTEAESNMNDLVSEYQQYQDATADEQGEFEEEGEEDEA
T1 sequence (P02550 whole entry partner): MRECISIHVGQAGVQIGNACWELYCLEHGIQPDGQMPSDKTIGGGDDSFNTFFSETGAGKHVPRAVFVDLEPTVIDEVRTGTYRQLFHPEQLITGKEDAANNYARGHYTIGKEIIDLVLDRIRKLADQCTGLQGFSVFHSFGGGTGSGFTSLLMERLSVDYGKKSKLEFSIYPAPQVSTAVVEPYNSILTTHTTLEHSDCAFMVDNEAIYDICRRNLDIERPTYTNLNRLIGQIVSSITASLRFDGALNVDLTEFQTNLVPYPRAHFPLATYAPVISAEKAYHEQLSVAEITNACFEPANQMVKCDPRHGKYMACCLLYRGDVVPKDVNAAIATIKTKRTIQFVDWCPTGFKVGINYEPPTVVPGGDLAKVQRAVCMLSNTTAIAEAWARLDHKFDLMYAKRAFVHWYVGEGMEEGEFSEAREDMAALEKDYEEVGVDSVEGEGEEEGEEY

## COc1cc(-n2ccc3ccc(-c4ccc(C)c(C#N)c4)cc32)cc(OC)c1OC [3g, 2-methyl-5-(1-(3,4,5-trimethoxyphenyl)-1H-indol-6-yl)benzonitrile]
[1]
  IC50: 6.1 ± 0.31 µM
[2]
  wound closure: markedly inhibited
[3]
  KD: low micromolar range
  Kd: 13 ± 1.17 µM
